Where “and” joins values, the source holds several entries; their conditions need not be identical. Equal values may be shown once. Entries after “also recorded” stand apart in the source; their conditions may differ.
Test system: skin of albino New Zealand White rabbits
Experiment: Rabbit skin irritation, Primary Irritation Index
Conditions: sulfate
Description: Within 24 hours to 4 hours before test application, the backs of female albino New Zealand White rabbits were clipped free of hair, exposing 2 test and 2 control areas on each side of the spine with a size of approximately 15 cm×15 cm. The two test sites are located on the left cranial section and the right caudal section of the dorsal region. The two control sites are located on the left caudal and right cranial section of the dorsal region. FIG. 4 depicts the arrangement of test and control sites. The exposed skin is wiped with alcohol and dried. Rabbits of acceptable skin quality were selected and used for testing.
A 25×25 mm gauze patch saturated with 0.5 mL of 0.9% NaCl is used for the control and applied to the clipped control sites. The patches are secured using hypoallergenic, waterproof, surgical tape over the test and control sites. The animal's trunk is securely wrapped so as to maintain the position of the patches. Patches are left applied for a minimum of four hours.
After patch removal, the test and control sites were then scored for erythema and edema at 1, 24, 48 and 72 hours after patch removal. Only the 24, 48, and 72 hour observations were scored and used for calculations. If no response was expected, testing was conducted using three animals per test article. If irritation was anticipated, one animal was tested initially. If the first animal received a score of 2 or less for either erythema or edema, 2 additional rabbits were used to conclude the test.
This total was divided by the total number of observations. The same was done for the control sites. […] These scores for each animal were added and divided by the total number of animals to give the Primary Irritation Index. […] For any response, the Maximum Irritation Response, the time of onset of the response and the time of maximum response was recorded.
To positively validate the test, 10% sodium dodecyl sulfate (SDS), which is a known dermal irritant, in petroleum jelly was applied to a 2.5 cm×2.5 cm gauze patch. As a negative control, 0.5 mL of 0.9% NaCl was applied to a 2.5 cm×2.5 cm gauze patch. A Primary Irritation Index in the moderate to severe range is considered a positive result. The test system and methods utilized were the same as described above.

[1] = per rabbit, test sites, 24, 48 and 72 hour observations after patch removal, patch at least four hours

CCCCCCCCCCCCOS(=O)(=O)[O-].[Na+] [10% SDS, sodium dodecyl sulfate]
Total Score Average (per rabbit (irritation index for each animal)): Total Score Average = 6.6; also recorded: Total Score Average = 7.3; also recorded: Total Score Average = 5.3
ED (edema) score total [1]: 19 and 21 and 14
ER (erythema) score total [1]: 21 and 23 and 18
ER + ED = Total (per rabbit, test sites, 24, 48 and 72 hour observations): 40 and 44 and 32

From US20250387428A1, “PETROLATUM-BASED PHMB COMPOSITIONS AND METHODS FOR THE TREATMENT OF INFLAMMATORY SKIN DISEASE” (priority 2024, published 2025)
